From publication PMC7317746 (Environmental and Molecular Mutagenesis, 2020)

System: male Sprague Dawley rats
Experiment: Pig‐a assay
Type: in vivo, rat
[1] = 1-Month Study, 250 mg/kg/day, Day 15
[2] = 1-Month Study, 250 mg/kg/day, Day 29
[3] = 1-Month Study, 250 mg/kg/day, Day -1 (pre-treatment)
[4] = 1-Month Study, 500 mg/kg/day, Day 15
[5] = 1-Month Study, 500 mg/kg/day, Day 29
[6] = 1-Month Study, 500 mg/kg/day, Day -1 (pre-treatment)
[7] = 1-Month Study, 1,000 mg/kg/day Days 1-29, Day 57 recovery group
[8] = 1-Month Study, 1,000 mg/kg/day, Day 15
[9] = 1-Month Study, 1,000 mg/kg/day, Day 29
[10] = 1-Month Study, 1,000 mg/kg/day, Day -1 (pre-treatment)
[11] = 2-Week Study, 250 mg/kg/day Days 1-15, Day 16
[12] = 2-Week Study, 500 mg/kg/day Days 1-15, Day 16
[13] = 2-Week Study, 1,000 mg/kg/day Days 1-15, Day 16
[14] = 3-Day Study, 500 mg/kg/day Days 1-3, Day 15
[15] = 3-Day Study, 500 mg/kg/day Days 1-3, Day 30
[16] = 3-Day Study, 500 mg/kg/day Days 1-3, Day 45
[17] = 3-Day Study, 500 mg/kg/day, Day -4 (pre-treatment)
[18] = 3-Day Study, 1,000 mg/kg/day Days 1-3, Day 15

CC(=O)Nc1ccc(O)cc1 [acetaminophen, Acetaminophen]
%RETs mean ± SD [1]: 3.7 ± 0.7%
Number of CD59‐Neg RBCs per 10^6 RBCs mean ± SD [1]: 0.6 ± 0.4 per 10^6 RBCs
Number of CD59‐Neg RETs per 10^6 RETs mean ± SD [1]: 1.8 ± 2.8 per 10^6 RETs
%RETs mean ± SD [2]: 2.9 ± 0.4%
Number of CD59‐Neg RBCs per 10^6 RBCs mean ± SD [2]: 0.9 ± 0.3 per 10^6 RBCs
Number of CD59‐Neg RETs per 10^6 RETs mean ± SD [2]: 3.0 ± 2.2 per 10^6 RETs
%RETs mean ± SD [3]: 5.2 ± 0.6%
Number of CD59‐Neg RBCs per 10^6 RBCs mean ± SD [3]: 0.7 ± 0.8 per 10^6 RBCs
Number of CD59‐Neg RETs per 10^6 RETs mean ± SD [3]: 0.6 ± 0.6 per 10^6 RETs
%RETs mean ± SD [4]: 3.2 ± 0.5%
Number of CD59‐Neg RBCs per 10^6 RBCs mean ± SD [4]: 0.3 ± 0.2 per 10^6 RBCs
Number of CD59‐Neg RETs per 10^6 RETs mean ± SD [4]: 1.0 ± 1.0 per 10^6 RETs
%RETs mean ± SD [5]: 2.0 ± 0.4 %
Number of CD59‐Neg RBCs per 10^6 RBCs mean ± SD [5]: 0.5 ± 0.1 per 10^6 RBCs
Number of CD59‐Neg RETs per 10^6 RETs mean ± SD [5]: 1.7 ± 1.9 per 10^6 RETs
%RETs mean ± SD [6]: 5.5 ± 1.3 %
Number of CD59‐Neg RBCs per 10^6 RBCs mean ± SD [6]: 0.3 ± 0.1 per 10^6 RBCs
Number of CD59‐Neg RETs per 10^6 RETs mean ± SD [6]: 0.6 ± 0.7 per 10^6 RETs
%RETs mean ± SD [7]: 2.8 ± 0.6%
Number of CD59‐Neg RBCs per 10^6 RBCs mean ± SD [7]: 0.9 ± 0.5 per 10^6 RBCs
Number of CD59‐Neg RETs per 10^6 RETs mean ± SD [7]: 0.5 ± 0.4 per 10^6 RETs
%RETs mean ± SD [8]: 2.8 ± 1.4%
Number of CD59‐Neg RBCs per 10^6 RBCs mean ± SD [8]: 0.6 ± 0.4 per 10^6 RBCs
Number of CD59‐Neg RETs per 10^6 RETs mean ± SD [8]: 1.6 ± 1.5 per 10^6 RETs
%RETs mean ± SD [9]: 2.4 ± 0.9%
Number of CD59‐Neg RBCs per 10^6 RBCs mean ± SD [9]: 1.6 ± 1.6 per 10^6 RBCs
Number of CD59‐Neg RETs per 10^6 RETs mean ± SD [9]: 4.5 ± 5.9 per 10^6 RETs
%RETs mean ± SD [10]: 4.6 ± 0.6%
Number of CD59‐Neg RBCs per 10^6 RBCs mean ± SD [10]: 0.5 ± 0.3 per 10^6 RBCs
Number of CD59‐Neg RETs per 10^6 RETs mean ± SD [10]: 0.7 ± 0.7 per 10^6 RETs
%RETs mean ± SD [11]: 2.7 ± 1.0%
Number of CD59‐Neg RBCs per 10^6 RBCs mean ± SD [11]: 0.7 ± 0.3 per 10^6 RBCs
Number of CD59‐Neg RETs per 10^6 RETs mean ± SD [11]: 1.4 ± 1.1 per 10^6 RETs
%RETs mean ± SD [12]: 2.4 ± 0.8 %
Number of CD59‐Neg RBCs per 10^6 RBCs mean ± SD [12]: 1.1 ± 1.7 per 10^6 RBCs
Number of CD59‐Neg RETs per 10^6 RETs mean ± SD [12]: 0.4 ± 0.4 per 10^6 RETs
%RETs mean ± SD [13]: 3.4 ± 0.7%
Number of CD59‐Neg RBCs per 10^6 RBCs mean ± SD [13]: 0.5 ± 0.3 per 10^6 RBCs
Number of CD59‐Neg RETs per 10^6 RETs mean ± SD [13]: 1.1 ± 0.9 per 10^6 RETs
%RETs mean ± SD [14]: 3.6 ± 0.6%
Number of CD59‐Neg RBCs per 10^6 RBCs mean ± SD [14]: 0.4 ± 0.2 per 10^6 RBCs
Number of CD59‐Neg RETs per 10^6 RETs mean ± SD [14]: 0.9 ± 0.7 per 10^6 RETs
%RETs mean ± SD [15]: 3.1 ± 0.2%
Number of CD59‐Neg RBCs per 10^6 RBCs mean ± SD [15]: 0.5 ± 0.3 per 10^6 RBCs
Number of CD59‐Neg RETs per 10^6 RETs mean ± SD [15]: 1.2 ± 1.2 per 10^6 RETs
%RETs mean ± SD [16]: 2.7 ± 0.4%
Number of CD59‐Neg RBCs per 10^6 RBCs mean ± SD [16]: 0.4 ± 0.2 per 10^6 RBCs
Number of CD59‐Neg RETs per 10^6 RETs mean ± SD [16]: 0.7 ± 1.3 per 10^6 RETs
%RETs mean ± SD [17]: 3.3 ± 0.8%
Number of CD59‐Neg RBCs per 10^6 RBCs mean ± SD [17]: 0.4 ± 0.2 per 10^6 RBCs
Number of CD59‐Neg RETs per 10^6 RETs mean ± SD [17]: 2.0 ± 2.1 per 10^6 RETs
%RETs mean ± SD [18]: 4.8 ± 0.8 %
Number of CD59‐Neg RBCs per 10^6 RBCs mean ± SD [18]: 0.6 ± 0.2 per 10^6 RBCs
Number of CD59‐Neg RETs per 10^6 RETs mean ± SD [18]: 1.8 ± 2.4 per 10^6 RETs
%RETs mean ± SD (3-Day Study, 1,000 mg/kg/day Days 1-3, Day 30): 3.3 ± 0.4%
